{"source": "PubChem BioAssay (NCI)", "assay_in_all_cases": "growth of human tumour cells (NCI), 48 h", "key": {"SK-MEL-2 melanoma": {"test_system": "SK-MEL-2 melanoma"}, "COLO 205 colon": {"test_system": "COLO 205 colon"}, "IGROV1 ovarian": {"test_system": "IGROV1 ovarian"}, "HOP-92 NSCLC": {"test_system": "HOP-92 NSCLC"}, "NCI/ADR-RES ovarian": {"test_system": "NCI/ADR-RES ovarian"}, "T-47D breast": {"test_system": "T-47D breast"}, "A498 renal": {"test_system": "A498 renal"}, "MCF7 breast": {"test_system": "MCF7 breast"}, "OVCAR-5 ovarian": {"test_system": "OVCAR-5 ovarian"}, "KM12 colon": {"test_system": "KM12 colon"}, "M14 melanoma": {"test_system": "M14 melanoma"}, "UO-31 renal": {"test_system": "UO-31 renal"}, "RPMI-8226 leukemia": {"test_system": "RPMI-8226 leukemia"}, "HL-60(TB) leukemia": {"test_system": "HL-60(TB) leukemia"}, "UACC-62 melanoma": {"test_system": "UACC-62 melanoma"}, "HCT-116 colon": {"test_system": "HCT-116 colon"}, "MOLT-4 leukemia": {"test_system": "MOLT-4 leukemia"}, "SK-MEL-5 melanoma": {"test_system": "SK-MEL-5 melanoma"}, "OVCAR-8 ovarian": {"test_system": "OVCAR-8 ovarian"}, "SNB-75 CNS": {"test_system": "SNB-75 CNS"}, "HS 578T breast": {"test_system": "HS 578T breast"}, "EKVX NSCLC": {"test_system": "EKVX NSCLC"}, "SF-295 CNS": {"test_system": "SF-295 CNS"}, "SK-MEL-28 melanoma": {"test_system": "SK-MEL-28 melanoma"}, "SR leukemia": {"test_system": "SR leukemia"}, "TK-10 renal": {"test_system": "TK-10 renal"}, "SF-539 CNS": {"test_system": "SF-539 CNS"}, "PC-3 prostate": {"test_system": "PC-3 prostate"}, "NCI-H460 lung": {"test_system": "NCI-H460 lung"}, "SNB-19 CNS": {"test_system": "SNB-19 CNS"}}, "note": "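Following 48 hours of exposure in 96-well plates, responses at five concentrations were used to interpolate endpoints linearly. GI50 = concentration required for 50% inhibition of growth. TGI: concentration producing complete growth inhibition.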", "data": [{"smiles": "COc1cc(/C=C/C(=O)c2ccc(Nc3nc(Nc4ccc(F)cc4)nc(Nc4ccc(Cl)cc4)n3)cc2)cc(OC)c1OC", "values": [{"measurement": "TGI", "setting": "SK-MEL-2 melanoma", "value": 27, "unit": "µM"}, {"measurement": "GI50", "setting": "COLO 205 colon", "value": 7.1, "unit": "µM"}, {"measurement": "TGI", "setting": "COLO 205 colon", "value": 41.2, "unit": "µM"}, {"measurement": "GI50", "setting": "IGROV1 ovarian", "value": 4.66, "unit": "µM"}, {"measurement": "TGI", "setting": "IGROV1 ovarian", "value": 31.8, "unit": "µM"}, {"measurement": "TGI", "setting": "HOP-92 NSCLC", "value": 4.75, "unit": "µM"}, {"measurement": "GI50", "setting": "NCI/ADR-RES ovarian", "value": 7.19, "unit": "µM"}, {"measurement": "TGI", "setting": "NCI/ADR-RES ovarian", "value": "> 85.3", "unit": "µM"}, {"measurement": "GI50", "setting": "T-47D breast", "value": 5.6, "unit": "µM"}, {"measurement": "TGI", "setting": "T-47D breast", "value": "> 62.2", "unit": "µM"}, {"measurement": "GI50", "setting": "A498 renal", "value": 3.23, "unit": "µM"}, {"measurement": "TGI", "setting": "A498 renal", "value": 13.6, "unit": "µM"}, {"measurement": "GI50", "setting": "MCF7 breast", "value": 1.87, "unit": "µM"}, {"measurement": "TGI", "setting": "MCF7 breast", "value": 20.3, "unit": "µM"}, {"measurement": "GI50", "setting": "OVCAR-5 ovarian", "value": 12.6, "unit": "µM"}, {"measurement": "TGI", "setting": "OVCAR-5 ovarian", "value": 45.5, "unit": "µM"}, {"measurement": "GI50", "setting": "KM12 colon", "value": 3.35, "unit": "µM"}, {"measurement": "TGI", "setting": "KM12 colon", "value": 19.9, "unit": "µM"}, {"measurement": "GI50", "setting": "M14 melanoma", "value": 10.1, "unit": "µM"}, {"measurement": "TGI", "setting": "M14 melanoma", "value": 43.5, "unit": "µM"}, {"measurement": "GI50", "setting": "UO-31 renal", "value": 6.7, "unit": "µM"}, {"measurement": "TGI", "setting": "UO-31 renal", "value": "> 61.8", "unit": "µM"}, {"measurement": "GI50", "setting": "RPMI-8226 leukemia", "value": 0.811, "unit": "µM"}, {"measurement": "TGI", "setting": "RPMI-8226 leukemia", "value": 4.8, "unit": "µM"}, {"measurement": "GI50", "setting": "HL-60(TB) leukemia", "value": 0.523, "unit": "µM"}, {"measurement": "TGI", "setting": "HL-60(TB) leukemia", "value": 3.23, "unit": "µM"}, {"measurement": "GI50", "setting": "UACC-62 melanoma", "value": 6.66, "unit": "µM"}, {"measurement": "TGI", "setting": "UACC-62 melanoma", "value": 23.7, "unit": "µM"}, {"measurement": "GI50", "setting": "HCT-116 colon", "value": 3.13, "unit": "µM"}, {"measurement": "TGI", "setting": "HCT-116 colon", "value": 14.2, "unit": "µM"}, {"measurement": "GI50", "setting": "MOLT-4 leukemia", "value": 1.15, "unit": "µM"}, {"measurement": "TGI", "setting": "MOLT-4 leukemia", "value": 3.6, "unit": "µM"}, {"measurement": "GI50", "setting": "SK-MEL-5 melanoma", "value": 4.16, "unit": "µM"}, {"measurement": "TGI", "setting": "SK-MEL-5 melanoma", "value": 19, "unit": "µM"}, {"measurement": "GI50", "setting": "OVCAR-8 ovarian", "value": 0.94, "unit": "µM"}, {"measurement": "TGI", "setting": "OVCAR-8 ovarian", "value": 11.1, "unit": "µM"}, {"measurement": "GI50", "setting": "SNB-75 CNS", "value": 3.67, "unit": "µM"}, {"measurement": "TGI", "setting": "SNB-75 CNS", "value": 38.7, "unit": "µM"}, {"measurement": "GI50", "setting": "HS 578T breast", "value": 2.75, "unit": "µM"}, {"measurement": "TGI", "setting": "HS 578T breast", "value": 11.9, "unit": "µM"}, {"measurement": "GI50", "setting": "EKVX NSCLC", "value": "> 24", "unit": "µM"}, {"measurement": "TGI", "setting": "EKVX NSCLC", "value": "> 100", "unit": "µM"}, {"measurement": "GI50", "setting": "SF-295 CNS", "value": 12.6, "unit": "µM"}, {"measurement": "TGI", "setting": "SF-295 CNS", "value": "> 44.9", "unit": "µM"}, {"measurement": "GI50", "setting": "SK-MEL-28 melanoma", "value": 1.82, "unit": "µM"}, {"measurement": "TGI", "setting": "SK-MEL-28 melanoma", "value": 3.71, "unit": "µM"}, {"measurement": "GI50", "setting": "SR leukemia", "value": 1.03, "unit": "µM"}, {"measurement": "TGI", "setting": "SR leukemia", "value": 3.74, "unit": "µM"}, {"measurement": "GI50", "setting": "TK-10 renal", "value": 19.8, "unit": "µM"}, {"measurement": "TGI", "setting": "TK-10 renal", "value": 76.4, "unit": "µM"}, {"measurement": "GI50", "setting": "SF-539 CNS", "value": 6.54, "unit": "µM"}, {"measurement": "TGI", "setting": "SF-539 CNS", "value": 15.3, "unit": "µM"}, {"measurement": "GI50", "setting": "PC-3 prostate", "value": 1.04, "unit": "µM"}, {"measurement": "GI50", "setting": "NCI-H460 lung", "value": 4.3, "unit": "µM"}, {"measurement": "TGI", "setting": "NCI-H460 lung", "value": 28, "unit": "µM"}, {"measurement": "GI50", "setting": "SNB-19 CNS", "value": 18.9, "unit": "µM"}, {"measurement": "TGI", "setting": "SNB-19 CNS", "value": "> 100", "unit": "µM"}]}]}
